Data taken from article PMC11594562, “Novel Peptide–Drug Conjugates with Dual Anticancer Activity” (International Journal of Molecular Sciences, 2024).
Like-named read-outs stand apart in the source and are kept apart here. Residues, ends and D or L forms follow the SMILES beside them.

How the values were obtained:
[1] = tested on: Vero cells; assay: MTT cytotoxicity assay, non-malignant Vero cells; details: Vero, 48 h, MTT
Source text: (§1) Against the T98G glioblastoma cells, the conjugation yields activities that are intermediate between those of the usnic acid and peptide components for both the hydrazinothiazole- and benzylidenefuranone-based candidates (4 and 5, respectively).
(§2) Human cancer cells of the SNB19, T98G (cells of human glioblastoma), and MCF-7 (adenocarcinoma) lines, along with cells derived from the kidney of an African green monkey (Vero), were used in this study. These cell lines were obtained from the cell collection of the State Research Center for Virology and Biotechnology “Vector” of Rospotrebnadzor, Koltsovo, Novosibirsk Region. They were cultured in DMEM/F12 medium containing 10% foetal bovine serum, L-glutamine (2 mmol/L), and gentamicin (80 µg/mL) in a CO2 incubator at 37 °C. The tested compounds were dissolved in DMSO (4 and 5) or H2O (6, 7, and 8) and added to the cellular culture at the required concentrations. Three wells were used for each concentration. The cells that were incubated without the compounds were used as controls. Cells were placed in 96-well microplates and cultivated at 37 °C in 5% CO2/95% air for 48 h. The cell viability was assessed through an MTT [3-(4,5-dimethylthiazol-2-yl)-2,5-phenyl-2H-tetrazolium bromide] conversion assay, where 1% MTT was added to each well. Four hours later, the medium was removed, leaving the formazan crystals, and isopropanol was added and mixed for 15 min. The optical density of the samples was measured on a TECAN Sunrise multi-well spectrophotometer at a wavelength of 570 nm, with a reference of 670 nm. The 50% cytotoxic dose (GI50) of each compound (i.e., the compound concentration that lowers the amount of cells to 50% in a culture, or decreases the optical density twofold as compared to the control wells) was calculated from the obtained data. Statistical processing of the results was performed using the Microsoft Excel-2007, […] 6.0, and GraphPad Prism 5.0 programs.

[2] = MTT cytotoxicity assay, non-malignant Vero cells; details: African green monkey
Source text: as §1, §2

[3] = tested on: MCF-7 (adenocarcinoma) cells; assay: MTT cytotoxicity assay, MCF-7 cells; details: for Cytotoxic dose GI80 / Cytotoxic dose GI90: MCF-7, 48 h, MTT; for GI50: Homo sapiens, MCF7, 48 h, read-out: Cytotoxic dose GI50
Procedure: (§3) Next, the conjugates and their parent agents were evaluated in a cytotoxicity assay. Human glioblastoma (SNB19, T98G) and adenocarcinoma (MCF-7) cell lines were used in this study.
as §2

[4] = MTT cytotoxicity assay, MCF-7 cells; details: human, MCF-7 adenocarcinoma cells
Procedure: as §3, §2

[5] = tested on: T98G glioblastoma cells; assay: MTT cytotoxicity assay, T98G cells; details: T98G, 48 h; for Cytotoxic dose GI80 / Cytotoxic dose GI90: MTT; for GI50: Homo sapiens, read-out: Cytotoxic dose GI50
Procedure: as §3, §2

[6] = MTT cytotoxicity assay, T98G cells; details: human
Procedure: as §3, §2

[7] = tested on: SNB19 glioblastoma cells; assay: MTT cytotoxicity assay, SNB19 cells; details: for Cytotoxic dose GI80 / Cytotoxic dose GI90: SNB19, 48 h, MTT; for GI50: Homo sapiens, SNB-19, 48 h, read-out: Cytotoxic dose GI50
Procedure: as §3, §2

[8] = MTT cytotoxicity assay, SNB19 cells; details: human, SNB19 glioblastoma cells
Procedure: as §3, §2

[9] = molecular target: T1, TDP1 (Homo sapiens, UniProt Q9NUW8); assay: biochemical; format: biochemical; details: for Increase in TDP1 IC50 compared to parent TDP1 inhibitor: conjugate 7 vs 4, conjugate 8 vs 5
T1 construct: made in house; host or cells: E. coli
Procedure: These conjugates and their individual components were tested in a real-time fluorescent assay of TDP1 inhibition.
Recombinant TDP1 protein was expressed in E. coli (the pET 16B plasmid containing TDP1 cDNA was kindly provided by Dr. K.W. Caldecott, University of Sussex, United Kingdom) and isolated as described in [60]. The final volume (200 μL) of the reaction mixture contained TDP1 reaction buffer (50 mM Tris-HCl, pH 8.0, 50 mM NaCl, 7 mM β-mercaptoethanol), 50 nM oligonucleotide substrate, and varied concentrations of the tested compounds. Purified TDP1 was added at a final concentration of 1.5 nM. The TDP1 reaction mixtures were incubated at a constant temperature of 26 °C in a POLARstar OPTIMA fluorimeter (BMG LABTECH, Offenburg, Germany). The fluorescence intensity was measured (Ex. 485/Em. 520 nm) every 1 min for 10 minutes. The efficiency of TDP1 inhibition was evaluated by comparing the rate of increase in the fluorescence of the biosensor in the presence of compound 4 or 5 to that of DMSO (1.5%) in control wells. IC50 values were determined using an eleven-point concentration response curve by MARS Data Analysis 2.0 (BMG LABTECH), and the slope during the linear phase was calculated. The IC50 measurements were carried out in at least three independent experiments.

[10] = Solubility in water / DMSO; format: physicochemical; details: water vs DMSO
Source text: Three wells were used for each concentration.

[11] = molecular target: Tyrosyl-DNA-phosphodiesterase 1 (TDP1); details: Figure 1; cited from earlier work
[12] = tested on: MCF-7 cells; details: native L-K6 sequence; read-out: IC50 (cytotoxicity of native sequence); cited from earlier work
[13] = recombinant TDP1 1.5 nM, 50 nM substrate, 26 °C
[14] = Vero cells (non-malignant kidney cell line)

T1 sequence (Q9NUW8 whole entry): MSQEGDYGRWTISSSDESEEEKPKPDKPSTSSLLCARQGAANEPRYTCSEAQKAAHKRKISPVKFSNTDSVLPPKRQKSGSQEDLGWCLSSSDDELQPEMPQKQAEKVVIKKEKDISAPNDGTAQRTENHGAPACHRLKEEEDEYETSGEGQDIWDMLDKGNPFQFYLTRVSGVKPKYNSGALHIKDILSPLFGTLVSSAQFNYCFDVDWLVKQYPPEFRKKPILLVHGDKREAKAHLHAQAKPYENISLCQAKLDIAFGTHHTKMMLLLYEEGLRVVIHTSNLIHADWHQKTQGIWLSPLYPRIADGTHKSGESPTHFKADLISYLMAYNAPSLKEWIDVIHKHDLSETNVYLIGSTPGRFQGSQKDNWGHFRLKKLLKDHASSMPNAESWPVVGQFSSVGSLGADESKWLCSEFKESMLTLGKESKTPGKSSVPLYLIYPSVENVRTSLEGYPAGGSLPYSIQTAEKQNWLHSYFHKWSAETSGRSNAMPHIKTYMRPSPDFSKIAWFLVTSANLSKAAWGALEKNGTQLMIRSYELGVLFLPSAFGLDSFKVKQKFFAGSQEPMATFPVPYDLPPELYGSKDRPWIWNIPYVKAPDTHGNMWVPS

Compound	Cytotoxic dose GI80 [1]	Cytotoxic dose GI90 [1]	GI50 at 48 h ([2]; Vero cells)	Cytotoxic dose GI80 [3]	Cytotoxic dose GI90 [3]	GI50 at 48 h [4]	Cytotoxic dose GI80 [5]	Cytotoxic dose GI90 [5]	GI50 at 48 h [6]	Cytotoxic dose GI80 [7]	Cytotoxic dose GI90 [7]	GI50 at 48 h [8]	IC50 [11]	also measured
CC[C@H](C)[C@H](NC(=O)CNN)C(=O)N[C@@H](CCCCN)C(=O)N[C@@H](CCCCN)C(=O)N[C@H](C(=O)N[C@@H](CC(C)C)C(=O)N[C@@H](CO)C(=O)N[C@@H](CCCCN)C(=O)N[C@H](C(=O)N[C@@H](CCCCN)C(=O)N[C@@H](CCCCN)C(=O)N[C@@H](CC(C)C)C(=O)N[C@@H](CC(C)C)C(=O)N[C@@H](CCCCN)C(N)=O)[C@@H](C)CC)[C@@H](C)CC [Compound 6] (HELM PEPTIDE1{[NNCC(=O)[*:2]].I.K.K.I.L.S.K.I.K.K.L.L.K.[am]}$$$$V2.0)	>100 µM	>100 µM	64 ± 13.7 µM	81 ± 16 µM	>100 µM	39 ± 6.08 µM	>100 µM	>100 µM	> 100 µM	>100 µM	>100 µM	> 100 µM	–	IC50 [9, 13]: 1.8 ± 0.6 µM
CC(=O)C1=C(O)C=C2Oc3c4c(c(C)c(O)c3[C@@]2(C)C1=O)O/C(=C\c1ccc(Br)cc1)C4=O [Compound 5]	>100 µM	>100 µM	–	3.9 ± 0.87 µM	4.7 ± 1.59 µM	–	>100 µM	>100 µM	–	>100 µM	>100 µM	–	0.15 µM	GI50 at 48 h [2, 14]: > 100 µM; Solubility [10]: require DMSO for solubility; GI50 [3]: 2.2 ± 0.31 µM; GI50 [5]: 21 ± 2.6 µM; GI50 [7]: > 100 µM; IC50 [9, 13]: 0.15 ± 0.03 µM
CC(=O)C1=C(O)C=C2Oc3c(C(=O)CSC#N)c(O)c(C)c(O)c3[C@@]2(C)C1=O [Compound 3, reference compound]	–	–	–	–	–	–	–	–	–	–	–	–	1.16 µM	–
L-K6 (IKKILSKIKKLLK; HELM PEPTIDE1{[NNCC(=O)[*:2]].I.K.K.I.L.S.K.I.K.K.L.L.K.[am]}$$$$V2.0; N-terminus assumed; SMILES CC[C@H](C)[C@H](NC(=O)CNN)C(=O)N[C@@H](CCCCN)C(=O)N[C@@H](CCCCN)C(=O)N[C@H](C(=O)N[C@@H](CC(C)C)C(=O)N[C@@H](CO)C(=O)N[C@@H](CCCCN)C(=O)N[C@H](C(=O)N[C@@H](CCCCN)C(=O)N[C@@H](CCCCN)C(=O)N[C@@H](CC(C)C)C(=O)N[C@@H](CC(C)C)C(=O)N[C@@H](CCCCN)C(N)=O)[C@@H](C)CC)[C@@H](C)CC)	–	–	–	–	–	–	–	–	–	–	–	–	–	IC50 [12]: 23 µM
CC[C@H](C)[C@H](NC(=O)Cn1nc(C)c2c1C=C1Oc3c(-c4csc(N/N=C/c5ccc(Br)cc5)n4)c(O)c(C)c(O)c3[C@@]1(C)C2=O)C(=O)N[C@@H](CCCCN)C(=O)N[C@@H](CCCCN)C(=O)N[C@H](C(=O)N[C@@H](CC(C)C)C(=O)N[C@@H](CO)C(=O)N[C@@H](CCCCN)C(=O)N[C@H](C(=O)N[C@@H](CCCCN)C(=O)N[C@@H](CCCCN)C(=O)N[C@@H](CC(C)C)C(=O)N[C@@H](CC(C)C)C(=O)N[C@@H](CCCCN)C(N)=O)[C@@H](C)CC)[C@@H](C)CC [Compound 7] (HELM PEPTIDE1{[Cc1nn(CC(=O)[*:2])c2c1C(=O)[C@@]1(C)C(=C2)Oc2c(-c3csc(N/N=C/c4ccc(Br)cc4)n3)c(O)c(C)c(O)c21].I.K.K.I.L.S.K.I.K.K.L.L.K.[am]}$$$$V2.0)	>100 µM	>100 µM	33 ± 3.53 µM	>100 µM	>100 µM	65 ± 15.3 µM	82 ± 1.78 µM	>100 µM	42 ± 3.02 µM	68 ± 3.34 µM	>100 µM	18 ± 0.35 µM	–	Increase in TDP1 IC50 compared to parent TDP1 inhibitor [9]: approximately 6.5 fold
CC[C@H](C)[C@H](NC(=O)Cn1nc(C)c2c1C=C1Oc3c4c(c(C)c(O)c3[C@@]1(C)C2=O)O/C(=C\c1ccc(Br)cc1)C4=O)C(=O)N[C@@H](CCCCN)C(=O)N[C@@H](CCCCN)C(=O)N[C@H](C(=O)N[C@@H](CC(C)C)C(=O)N[C@@H](CO)C(=O)N[C@@H](CCCCN)C(=O)N[C@H](C(=O)N[C@@H](CCCCN)C(=O)N[C@@H](CCCCN)C(=O)N[C@@H](CC(C)C)C(=O)N[C@@H](CC(C)C)C(=O)N[C@@H](CCCCN)C(N)=O)[C@@H](C)CC)[C@@H](C)CC [Compound 8] (HELM PEPTIDE1{[Cc1nn(CC(=O)[*:2])c2c1C(=O)[C@@]1(C)C(=C2)Oc2c3c(c(C)c(O)c21)O/C(=C\c1ccc(Br)cc1)C3=O].I.K.K.I.L.S.K.I.K.K.L.L.K.[am]}$$$$V2.0)	>100 µM	>100 µM	18 ± 3.18 µM	72 ± 2.4 µM	>100 µM	36 ± 1.24 µM	80 ± 2.86 µM	>100 µM	38 ± 1.22 µM	56 ± 0.7 µM	85 ± 2.32 µM	16.5 ± 0.35 µM	–	GI50 at 48 h ([8]; Cytotoxic dose GI50, SNB19, 48 h, MTT): 16 µM; Increase in TDP1 IC50 compared to parent TDP1 inhibitor [9]: ~2.3 fold
CC(=O)C1=C(O)C=C2Oc3c(-c4csc(N/N=C/c5ccc(Br)cc5)n4)c(O)c(C)c(O)c3[C@@]2(C)C1=O [Compound 4]	48 ± 16.76 µM	>100 µM	–	4.7 ± 0.21 µM	5.5 ± 0.41 µM	–	51 ± 1.08 µM	90 ± 3.94 µM	–	61 ± 1.78 µM	83 ± 1.87 µM	–	0.026 µM	GI50 at 48 h [2, 14]: 4.1 ± 1.66 µM; Solubility [10]: require DMSO for solubility; GI50 [3]: 2.8 ± 0.07 µM; GI50 [5]: 10.1 ± 0.67 µM; GI50 [7]: 20.5 ± 2.27 µM; IC50 [9]: 0.026 ± 0.011 µM
CC(=O)c1c(O)c(C)c(O)c2c1OC1=CC(=O)/C(=C(/C)NCCCc3cc(C(C)(C)C)c(O)c(C(C)(C)C)c3)C(=O)[C@@]12C [Compound 2, reference compound]	–	–	–	–	–	–	–	–	–	–	–	–	0.16 µM	–
